Measurements published in US8188296B2, “Gentisic acid for stabilising 123-I radiopharmaceuticals” (GE Healthcare Limited, priority 2005, dated 2012).

Experiments:
Format in all cases: physicochemical
[1] = Discolouration / heat sterilisation stability of stabiliser stock solutions
Description: A preferred biocompatible carrier medium for the stabiliser stock solution comprises an aqueous solution at a pH suitable for intravenous administration. A preferred such aqueous solution is a buffer solution, most preferably phosphate buffer. When the radiopharmaceutical is ^123I-IBZM, the pH of the buffered stock solution is suitably pH 5 to 8, preferably 5.4 to 7, most preferably 5.7 to 6.3. As noted above, gentisic acid solutions tend to suffer from discoloration problems. […] The stock solutions may be prepared under non-sterile conditions, followed by terminal sterilisation using e.g. gamma-irradiation, autoclaving, dry heat or chemical treatment (e.g. with ethylene oxide). Alternatively, the stock solutions may be prepared under aseptic manufacture conditions to give the desired sterile, pyrogen-free product. Preferably the sterile stock solutions are prepared by terminal sterilisation, most preferably by autoclaving. Such autoclaving involves steam heating at over 121° C., so represents stress conditions wherein unwanted chemical reactions might be expected. […] It is therefore surprising that the lack of discolouration for gentisic acid can be maintained under such conditions.

[2] = Radiochemical purity (TLC) of 123I-IBZM solutions stored at ambient temperature, GA vs AA stabiliser (Example 1); conditions: at the moment of use; stabiliser named as label
Method: ^123I-IBZM was prepared by the method of Bobeldijk et al [J. Lab. Comp. Radiopharm., 28, 1247-1256 (1990)]. A small series of ^123I-IBZM solutions was prepared: to each vial 200 μl of ^123I-IBZM in EtOH (925 MBq/cm^3) was added and subsequently 2.3 ml of aqueous phosphate buffer solution optionally containing a stabiliser, in such a way that the resulting ethanol content was 8% and the radioactive concentration at calibration time was 74 MBq/cm^3 (2 mCi/ml).
The vials were stored at ambient temperature and the radiochemical purity (RCP) was determined by thin layer chromatography (TLC) at the time of dilution with phosphate buffer and at 24 and 48 hours afterwards.

[3] = Radiochemical purity of 123I-IBZM solutions made with autoclaved stabiliser stock solutions (Example 3); conditions: stock solution sterilised in an autoclave at 121 °C
Method: Stock solutions of the stabilisers shown were prepared, purged with argon gas and then sealed under argon in a septum-sealed vial with a Teflon™ coated rubber stopper.
The solutions were sterilised by autoclaving for 15 minutes at 121° C., and then allowed to cool to ambient temperature before use.
A small series of ^123I-IBZM solutions was prepared: to each vial ^123I-IBZM in EtOH (925 MBq/cm^3) was added and subsequently an aqueous phosphate buffer solution containing a stabiliser as specified in Table 3 (below), in such a way that the resulting ethanol content was 8% and the radioactive concentration at calibration time was 74 MBq/cm^3 (2 mCi/ml). The RCP of each vial was determined 3 hours after preparation and after storage at room temperature for 51 hours.

[4] = Radiochemical purity of 123I-IBZM vs gentisic acid concentration in stock solution (Example 4, FIG. 1); conditions: 0 to 0.39% w/v gentisic acid, pH 5.8, 74 MBq/ml, room temperature
Method: A phosphate buffer solution (300 ml) was divided into 6 vials each of 50 ml with various amounts of gentisic acid, corresponding to w/v concentrations of 0%, 0.024%, 0.050%, 0.10%, 0.20% and 0.39%. The pH was checked, and if necessary adjusted by the addition of NaOH to obtain a pH of 5.8 (±0.1). The vials were stoppered with Teflon™ coated rubber stoppers and sterilised for 15 min at 121° C.
An ethanolic solution of ^123I-IBZM (activity concentration at REF: 925 MBq/ml (25 mCi/ml)) was divided over 6 vials and into each was added an aliquot of the 6 gentisic acid buffer solutions from step (a) to obtain a final solution with a total activity content of 185 MBq (5 mCi), at a RAC of 74 MBq/ml (2 mCi/ml) and an ethanol content of 8%. The vials were stoppered with a Teflon™ coated rubber stopper and stored at room temperature. The RCP was measured at various time points after EOS.

[5] = Radiochemical purity of 123I-mIBG in phosphate buffer with stabilisers (Example 5); conditions: compared with benzyl alcohol
Method: Two series of 5 vials of ^123I-mIBG solutions were prepared: to each vial an aliquot of 0.5 cm^3 of freshly prepared ^123I-mIBG in (stabiliser-free) Phosphate buffer (360 MBq/cm^3) was added and subsequently an aliquot of 2.0 cm^3 of an aqueous phosphate buffer solution containing a stabiliser as specified in Table 4 (below), followed by mixing. The final mixtures were not heat sterilized. The total activity per vial was 185 MBq with an RAC of 74 MBq/ml. The specific activity was 992 GBq/g mIBG base. Vials A1 to E1 were stored at 40° C. and vials A2 to E2 at 20° C. The RCP was determined at the EOS (end of synthesis) and at 3, 20 and 45 hours thereafter.

principal radiochemical impurity (free 123I-iodide) in the 123I-IBZM preparation [2] [%] | stabilisation of 123I-IBZM (in words) [3] | discolouration of solutions on autoclave sterilisation ([1]; oxygen not excluded, autoclave) | Compound | stability to heat sterilisation (autoclaving, over 121 °C) in buffer solution ([1]; buffer solution) | stabilisation of 123I-IBZM vs stabiliser concentration (in words) [4] | stabilisation of 123I-MIBG (in words) [5] | discolouration of sterile solutions in aqueous buffer on storage ([1]; oxygen gas in the environment minimised)
4 to 5 |  |  | O=C1O[C@H]([C@@H](O)CO)C(O)=C1O [ascorbic acid, reference compound] | does not withstand such heat sterilisation in buffer solution |  |  | 
2 to 3 | still an effective stabiliser | visible discolouration does occur | O=C(O)c1cc(O)ccc1O [gentisic acid, 2,5-dihydroxybenzoic acid] |  | little or no additional stabilisation benefit is obtained | effective at much lower concentrations than benzyl alcohol | do not discolour even on storage for more than a year
